Values quoted from earlier work as cited in patent publication US4722394A, “Determining residual oil saturation by radioactively analyzing injected CO2 and base-generating tracer-providing solution” (Shell Oil Company, priority 1986, dated 1988).

distribution coefficient, Ki (ratio of concentration of tracer in the oil phase to that in the water phase): about 2
Compound: O=C=O [CO2, carbon dioxide]
